Patent EP4810508A1, “ARABINOSE DERIVATIVE COMPOUND, AND COMPOSITION COMPRISING SAME FOR PREVENTING OR TREATING DEGENERATIVE BRAIN DISEASES” (Digmbio. Inc., priority 2023, dated 2025)
Read-outs that look alike come from different tables or passages of the source.

Experiments:
male ICR mice [1] = assay: Scopolamine-induced cognitive impairment model: passive avoidance test (PAT); assay type: in vivo; conditions: for percent recovery of memory in passive avoidance test (normal group = 100, scopolamine control = 0) at 50 mg/kg: Mus musculus, po, 168 h, read-out: in vivo(effect) PAT (%); for cognitive function recovery compared to normal animals, passive avoidance test (effect %): compounds 50 mg/kg, donepezil 5 mg/kg, orally for 7 days, scopolamine 1 mg/kg intraperitoneal; for in vivo PAT: time staying in bright room (step-through latency), scopolamine 1 mg/kg i.p., compounds 50 mg/kg oral for 7 days, donepezil 5 mg/kg (avg.)
Source text: (§1) A memory loss rodent animal model induced by scopolamine intraperitoneal administration is used, and an evaluation method for memory uses a Y-maze test and a passive avoidance test (PAT). Scopolamine is a representative experimental model showing an impairment of cognitive function similar to AD patients by blocking neurotransmitters when administered to an animal as an antagonist of a muscarinic acetylcholine receptor, and as a cognitive function evaluation technique, a Y-maze test and a passive avoidance experiment, which are general and representative methods, were used, and in order to objectify the efficacy levels of the compounds, a group administered with donepezil (Aricept, Eisa) as a positive control material was separately provided to compare the efficacy levels of the compounds.
(§2) In order to evaluate cognitive function, 5-week-old male ICR mice were used, the compounds to be evaluated were prepared at a dose of 50 mg/kg/ml and repeatedly orally administered at a predetermined time for 7 days, and the positive control material was carried out at 5 mg/kg/ml. After the last administration, after 30 minutes of intraperitoneal administration of 1 mg/kg/2 ml of scopolamine, a Y-maze test and a passive avoidance test, which are cognitive function evaluations, were performed.
In addition, the passive avoidance test was conducted using an avoidance learning box (Jeondo B&P, Korea, Seoul), and the avoidance learning box is divided into a dark room and a bright room, and when a laboratory animal is put into a bright room, the subject goes beyond the dark room. At the moment, an electric shock of 0.5 mA is applied for 5 seconds, and when the next day experimental animal is put back into a bright room, an electric shock in a dark room is memorized and stay in a bright room. In this case, a step-through latency is measured to evaluate memory. The efficacy of the compounds of the present invention against the normal group and the control group in the Y-maze test and the passive avoidance test was described in the following Table 3 (Scopolamine-induced cognitive impairment model result).

male ICR mice [2] = assay: Scopolamine-induced cognitive impairment model: Y-maze test; assay type: in vivo; conditions: for percent recovery of cognitive function (Y-maze) at 50 mg/kg: Mus musculus, po, 168 h; for in vivo Y-maze (%): spontaneous alternation, scopolamine 1 mg/kg i.p., compounds 50 mg/kg oral for 7 days, donepezil 5 mg/kg (avg.)
Source text: as §1, §2
The Y-maze test is a method for evaluating the ability to sequentially act as an experiment for measuring short-term memory. The measurement equipment is composed of three branches, each branch has a length of 42 cm, a width of 3 cm, and a height of 12 cm, and an angle at which three branches are folded is 120°. Experimental animals are put into each branch for 8 minutes, and the number of times of entering the branches to the tail of the experimental animal and the case of being sequentially received in each branch are scored (actual alternation). The alternation behavior is defined as entering not to overlap all three, and is calculated by the following equation. [formula]

HRE/Luc/HEK293 cells = assay: HRE (Hypoxia Response Element) luciferase assay; assay type: cell-based, human; conditions: for fold induction at 10 µM / fold induction at 100 µM: Homo sapiens; for HRE assay: increase in HRE expression levels by the test substance relative to the vehicle in HRE/Luc/HEK293 cells
Method in brief: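 HRE-luciferase HEK293 cells in MEM/10% FBS pretreated with compound 6 h, then held under hypoxia (0.1% O2) 18 h; luminescence read after lysis. Scored as fold increase over vehicle, with twofold threshold at 100, 10 or 1 µM.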

[3] = read-out: cognitive function recovery compared to normal animals, Y-maze experiment (effect %)
[4] = read-out: in vivo(effect) Y-maze (%)
[5] = HEK293, 18 h, Table 2 (Examples 37-74, 52), read-out: HKt-increasing 10uM
[6] = HEK293, 18 h, Table 2 (Examples 37-74, 52), read-out: HKt-increasing 100uM
[7] = HEK293, fold increase of HRE expression, hypoxic conditions (O2 0.1%) 18 hours, Table 2, read-out: HRE-increasing 10uM
[8] = HEK293, fold increase of HRE expression, hypoxic conditions (O2 0.1%) 18 hours, Table 2, read-out: HRE-increasing 100uM

SMILES	percent recovery of memory in passive avoidance test (normal group = 100, scopolamine control = 0) at 50 mg/kg (male ICR mice [1]) [%]	cognitive function recovery compared to normal animals, passive avoidance test (effect %) (male ICR mice [1]) [%]	in vivo PAT (male ICR mice [1]) [s]	percent recovery of cognitive function (Y-maze) at 50 mg/kg (male ICR mice [2]; [3]) [%]	percent recovery of cognitive function (Y-maze) at 50 mg/kg (male ICR mice [2]; [4]) [%]	in vivo Y-maze (%) (male ICR mice [2])	fold induction at 10 µM (HRE/Luc/HEK293 cells; [5])	fold induction at 100 µM (HRE/Luc/HEK293 cells; [6])	fold induction at 10 µM (HRE/Luc/HEK293 cells; [7])	fold induction at 100 µM (HRE/Luc/HEK293 cells; [8])	HRE expression (HRE/Luc/HEK293 cells; concentration of 10 µM)	HRE assay (HRE/Luc/HEK293 cells)	HRE expression (HRE/Luc/HEK293 cells; low concentration of 1 µM)
CC(C)c1ccc(Oc2ccc(O[C@H]3OC[C@@H](O)[C@H](O)[C@H]3O)cc2)cc1 [Example 56, (2R,3R,4S,5R)-2-(4-(4-isopropylphenoxy)phenoxy)tetrahydro-2H-pyran-3,4,5-triol]	81	≥ 50	217.3	≥ 50	64	61.8	2.7	1.4	–	–	–	–	–
CC(C)c1ccc(Cc2ccc(O[C@H]3OC[C@H](O)[C@H](O)[C@H]3O)cc2)cc1 [Example 7, (2R,3R,4S,5S)-2-(4-(4-isopropylbenzyl)phenoxy)tetrahydro-2H-pyran-3,4,5-triol]	73	≥ 50	179	≥ 50	57	65	–	–	3.5	< 1	more than threefold	•••	–
CCOc1ccc(C(C)(C)c2ccc(O[C@H]3OC[C@H](O)[C@H](O)[C@H]3O)cc2)cc1 [Example 31, (2R,3R,4S,5S)-2-(4-(2-(4-ethoxyphenyl)propan-2-yl)phenoxy)tetrahydro-2H-pyran-3,4,5-triol]	65	≥ 50	204	≥ 50	71	68	–	–	1.1	1.6	–	–	–
CC(C)(C)c1ccc(Oc2ccc(O[C@H]3OC[C@H](O)[C@H](O)[C@H]3O)cc2)cc1 [Example 36]	17	–	76	–	42	59	–	–	3.5	< 1	more than threefold	–	–
CC(C)c1ccc(Cc2ccc(O[C@H]3OC[C@H](O)[C@H](O)[C@H]3O)c(Cl)c2)cc1 [Example 8, (2R,3R,4S,5S)-2-(2-chloro-4-(4-isopropylbenzyl)phenoxy)tetrahydro-2H-pyran-3,4,5-triol]	11	–	58	–	43	58	–	–	4.2	–	more than threefold	•••	–
COc1ccc(Cc2ccc(O[C@H]3O[C@@H](C)[C@@H](O)[C@@H](O)[C@@H]3O)cc2)cc1 [Example 6, (2R,3S,4R,5S,6S)-2-(4-(4-methoxybenzyl)phenoxy)-6-methyltetrahydro-2H-pyran-3,4,5-triol]	10	–	109	–	-6	53	–	–	< 1	1.5	–	•	–
Cc1ccc(Oc2ccc(O[C@H]3OC[C@H](O)[C@H](O)[C@H]3O)cc2)cc1 [Example 33, (2R,3R,4S,5S)-2-(4-(para-tolyloxy)phenoxy) tetrahydro-2H-pyran-3,4,5-triol]	10	–	58	–	30	56	–	–	3.8	2.5	more than threefold	–	–
O[C@@H]1[C@@H](O)[C@@H](Oc2ccc(Cc3ccc(F)cc3)cc2)OC[C@@H]1O [Example 13, (2R,3R,4S,5S)-2-(4-(4-fluorobenzyl)phenoxy)tetrahydro-2H-pyran-3,4,5-triol]	37	–	149	–	17	57	–	–	1.4	2.4	–	••	–
O[C@@H]1[C@@H](O)[C@@H](Oc2ccc(Cc3ccc(Cl)cc3)cc2)OC[C@@H]1O [Example 14, (2R,3R,4S,5S)-2-(4-(4-chlorobenzyl)phenoxy)tetrahydro-2H-pyran-3,4,5-triol]	33	–	129	–	7	57	–	–	1.9	2.5	–	••	–
CC(C)c1ccc(Cc2ccc(O[C@H]3OC[C@H](O)[C@H](O)[C@H]3O)c(F)c2)cc1 [Example 41, (2R,3R,4S,5S)-2-(2-fluoro-4-(4-isopropylbenzyl)phenoxy)tetrahydro-2H-pyran-3,4,5-triol]	16	–	69.6	≥ 50	54	59.8	3	3.2	–	–	–	–	more than threefold
CC(C)c1ccc(Cc2ccc(S[C@H]3OC[C@H](O)[C@H](O)C3O)cc2)cc1 (stereo partly drawn) [Example 27, (2R,4S,5S)-2-((4-(4-isopropylbenzyl)phenyl)thio) tetrahydro-2H-pyran-3,4,5-triol]	28	–	80	–	44	62	–	–	3.7	< 1	more than threefold	–	–
COc1ccc2cc(Cc3ccc(O[C@H]4OC[C@H](O)[C@H](O)[C@H]4O)cc3)ccc2c1 [Example 20, ((2R,3R,4S,5S)-2-(4-(6-methoxynaphthalen-2-yl)methyl)phenoxy)tetrahydro-2H-pyran-3,4,5-triol]	38	–	142	≥ 50	61	69	–	–	1	1.1	–	–	–
COc1ccc(C(C)(C)c2ccc(O[C@H]3OC[C@H](O)[C@H](O)[C@H]3O)cc2)cc1 [Example 30, (2R,3R,4S,5S)-2-(4-(2-(4-methoxyphenyl)propan-2-yl)phenoxy)tetrahydro-2H-pyran-3,4,5-triol]	60	≥ 50	194	–	45	63	–	–	1.1	1.4	–	–	–
